# According to US6750244B2, “Compounds active at a novel site on receptor-operated calcium channels useful for treatment of neurological disorders and diseases” (NPS Pharmaceuticals, Inc., priority 1993, dated 2004):
# pIC50: −log10 of the molar value. “Also recorded” adds a separate entry of the source. Like-named read-outs stand apart in the source and are kept apart here.
# How the values were obtained:
# [1] = system: locomotor activity; conditions: 32 mg/kg s.c.
# Description: The first assay simply monitors locomotor activity during the first hour following peripheral (s.c. or i.p.) administration of test substance. […] Activity was quantified by counting the number of breaks in a phototube grid in a 60 min period.
# [2] = system: neuronal vacuolization; conditions: i.p.
# [3] = system: thermal nociception; format: in vivo, rats; conditions: 0.3-3 nmol i.th.
# Description: In these experiments, a 52° C. hot plate was used as the nociceptive stimulus.
# [4] = molecular target: voltage-sensitive Ca2+ channels (Rattus norvegicus, UniProt P22002); test: cell-based
# voltage-sensitive Ca2+ channels, sequence (P22002 whole entry): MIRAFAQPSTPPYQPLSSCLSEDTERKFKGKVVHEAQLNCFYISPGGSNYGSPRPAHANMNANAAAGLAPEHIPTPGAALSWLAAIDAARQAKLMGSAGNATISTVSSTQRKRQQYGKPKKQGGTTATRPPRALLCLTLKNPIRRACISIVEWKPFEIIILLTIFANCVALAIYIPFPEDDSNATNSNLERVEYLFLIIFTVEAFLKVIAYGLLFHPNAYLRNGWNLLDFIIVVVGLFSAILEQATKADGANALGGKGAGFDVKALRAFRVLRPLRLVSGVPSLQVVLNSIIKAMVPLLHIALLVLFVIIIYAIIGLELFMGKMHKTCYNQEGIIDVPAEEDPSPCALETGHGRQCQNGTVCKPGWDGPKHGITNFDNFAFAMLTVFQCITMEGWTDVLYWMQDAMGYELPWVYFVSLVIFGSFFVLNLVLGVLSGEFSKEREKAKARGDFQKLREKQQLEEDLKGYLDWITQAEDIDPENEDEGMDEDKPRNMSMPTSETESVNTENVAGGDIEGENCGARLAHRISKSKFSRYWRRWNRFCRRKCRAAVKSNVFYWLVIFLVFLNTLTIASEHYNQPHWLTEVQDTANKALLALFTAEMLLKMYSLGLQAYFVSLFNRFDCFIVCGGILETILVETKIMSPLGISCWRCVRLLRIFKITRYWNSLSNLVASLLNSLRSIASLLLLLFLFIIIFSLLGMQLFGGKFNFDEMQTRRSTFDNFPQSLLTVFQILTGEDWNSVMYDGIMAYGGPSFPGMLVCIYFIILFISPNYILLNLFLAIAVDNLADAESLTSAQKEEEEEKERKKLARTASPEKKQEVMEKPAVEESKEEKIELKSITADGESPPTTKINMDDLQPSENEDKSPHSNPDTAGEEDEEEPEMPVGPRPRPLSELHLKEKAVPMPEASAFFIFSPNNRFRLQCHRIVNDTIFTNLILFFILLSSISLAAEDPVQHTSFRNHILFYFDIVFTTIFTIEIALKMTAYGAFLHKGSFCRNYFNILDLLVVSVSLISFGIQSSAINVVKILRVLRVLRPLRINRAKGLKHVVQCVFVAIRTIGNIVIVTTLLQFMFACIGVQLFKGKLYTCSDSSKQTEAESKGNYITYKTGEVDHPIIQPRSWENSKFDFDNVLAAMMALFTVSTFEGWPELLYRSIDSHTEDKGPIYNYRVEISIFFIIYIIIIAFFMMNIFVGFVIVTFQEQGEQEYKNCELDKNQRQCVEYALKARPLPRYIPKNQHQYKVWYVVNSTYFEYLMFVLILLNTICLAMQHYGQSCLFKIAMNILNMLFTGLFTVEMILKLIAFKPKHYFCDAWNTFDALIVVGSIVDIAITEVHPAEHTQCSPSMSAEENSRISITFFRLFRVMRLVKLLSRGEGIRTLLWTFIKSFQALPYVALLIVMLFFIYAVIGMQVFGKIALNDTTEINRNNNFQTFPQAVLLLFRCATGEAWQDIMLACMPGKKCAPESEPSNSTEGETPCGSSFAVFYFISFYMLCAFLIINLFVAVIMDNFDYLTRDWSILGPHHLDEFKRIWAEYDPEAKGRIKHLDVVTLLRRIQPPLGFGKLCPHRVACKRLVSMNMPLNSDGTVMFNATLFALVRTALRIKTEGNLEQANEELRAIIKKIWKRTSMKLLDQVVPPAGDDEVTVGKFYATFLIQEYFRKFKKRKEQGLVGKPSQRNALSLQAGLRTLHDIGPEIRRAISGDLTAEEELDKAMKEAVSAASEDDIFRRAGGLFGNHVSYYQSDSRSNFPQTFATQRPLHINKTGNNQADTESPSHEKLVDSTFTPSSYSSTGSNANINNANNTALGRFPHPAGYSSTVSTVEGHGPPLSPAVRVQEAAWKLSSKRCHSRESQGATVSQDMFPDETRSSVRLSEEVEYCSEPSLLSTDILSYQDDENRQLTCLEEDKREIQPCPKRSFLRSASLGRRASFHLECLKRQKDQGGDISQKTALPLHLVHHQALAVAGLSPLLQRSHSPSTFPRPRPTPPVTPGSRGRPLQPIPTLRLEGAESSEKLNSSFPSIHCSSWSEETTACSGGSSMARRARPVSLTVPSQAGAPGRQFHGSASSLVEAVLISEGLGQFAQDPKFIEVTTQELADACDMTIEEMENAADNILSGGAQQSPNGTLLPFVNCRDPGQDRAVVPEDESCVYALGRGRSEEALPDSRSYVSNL
# Source text: (§1) The ability of arylalkylamines to inhibit dihydropyridine-sensitive Ca^2+ channels was examined in cerebellar granule cells and a rat aortic smooth muscle cell line, A7r5 cells.
# [5] = Acute motor impairment (rotorod) in mice; conditions: mouse, in vivo, ip
# Description: (§2) In this assay, Frings and CF1 mice were injected with test compound and placed on a knurled rod which rotated at a speed of 6 rpm. The ability of the mice to maintain equilibrium for long periods of time was determined; those mice that were unable to maintain equilibrium on the rotorod for 1 min in each of 3 trials were considered impaired.
# [6] = system: motor performance; test: Acute motor impairment (rotorod) in mice
# Description: as §2
# [7] = system: NMDA receptor; test: Inhibition of NMDA/glycine-induced increases in intracellular calcium in cultured rat cerebellar granule cells (RCGC); format: cell-based
# [8] = system: thermal nociception; format: in vivo, rats; conditions: 0.3-3 nmol i.th.; remark: listed apart in the source
# Description: In this standard assay, the thermal nociceptive stimulus was 52° C. warm water with the latency to tail flick or withdrawal taken as the endpoint.
# [9] = system: PCP-like discriminative stimulus effects; format: in vivo, rats
# Source text: In this assay, rats who have been trained to lever press for food reinforcement must select which of two levers in their cages is correct. The only stimulus they hive for selecting the correct lever is their ability to detect whether they received a PCP or vehicle injection After about two months of training, rats become very good at discriminating PCP from vehicle injections and can then be tested with other drugs to determine if they are discriminated as PCP. When tested in this procedure, other drugs which are known to produce a PCP-like intoxication substitute for PCP. These drugs include various PCP analogs such as ketamine and the noncompetitive NMDA receptor antagonist, MK-801.
# [10] = system: acetic acid-induced writhing; format: in vivo, mice; conditions: i.p.
# [11] = system: maximal electroshock-induced seizures; test: Maximal electroshock-induced seizures in mice; format: in vivo; conditions: for ED50: Mus musculus, mice
# [12] = system: NMDA receptor; conditions: rat hippocampal slices
# Description: (§3) Glutamate-mediated transmission at synapses of Schaffer collateral fibers and CA1 pyramidal cells was measured in slices of rat brain containing the hippocampus. This assay measures electrophysiologically the postsynaptic depolarization caused by the presynaptic release of glutamate, and can readily distinguish synaptic transmission mediated by NMDA or AMPA receptors.
# [13] = molecular target: AMPA receptor; conditions: read-out: IC50 for the AMPA receptor-mediated response; rat hippocampal slices
# Description: as §3
# [14] = system: thermal nociception; format: in vivo, mice
# [15] = system: focal cerebral ischemia; test: Middle cerebral artery occlusion, permanent, surgical ligation; format: in vivo, rat; conditions: single dose 30 mg/kg i.p. 30 minutes after occlusion; 24 hours
# Description: In the first study using this stroke model, one cerebral artery was permanently occluded by surgical ligation. The test compounds were administered 30 minutes after the occlusion by a single intraperitoneal (i.p.) injection. During the course of these experiments, the core body temperature of the animals was maintained at 37° C. to prevent any hypothermic reaction. Brains were assessed histologically for neuronal cell loss 24 hours later. Infarct volumes were calculated using the area of histological pallor from 10 slides and integrating the distance between each successive section.
# [16] = molecular target: NMDA receptor-ionophore complex (site labeled by [3H]MK-801); test: Inhibition of [3H]MK-801 binding in rat cortical/hippocampal washed membrane preparations; conditions: read-out: IC50 (μM) vs. [3H]MK-801; rat cortical/hippocampal washed membranes
# [17] = system: motor performance
# Source text: In this assay, animals are placed on a wire-holed grid suspended from a rotating metal bar which can be inverted. The animals are then scored for their ability to climb to the top or hang on to the grid. […] This assay provides an index of “behavioral disruption” that may result from ataxia, loss of the righting reflex, sedation, or muscle relaxation.
# [18] = system: NMDA receptors; conditions: patch clamp
# [19] = system: forebrain ischemia (neuronal cell death); format: in vivo, gerbil
# Description: Blood flow to the brain was interrupted for 7 minutes by clamping the carotid arteries. The test compounds were administered as a 'single dose given intraperitoneally (i.p.) 30 minutes after reinstating blood flow. During the course of these experiments, the core body temperature of the animals was maintained at 37° C. to prevent any hypothermic reaction. […]
# [20] = system: formalin-induced flinching; format: in vivo, Sprague-Dawley rats; conditions: 0.3-10 nmol i.th.
# [21] = system: sound-induced seizures; test: Sound-induced seizures in Frings mice (reflex epilepsy); format: in vivo
# [22] = system: mean arterial blood pressure; conditions: rats; for Drop in Mean Arterial Blood Pressure / Drop in Mean Arterial Blood Pressure: duration: 1.5 μmoles/kg i.v.
# [23] = system: T1, L-type calcium channel; test: Inhibition of KCl depolarization-induced increases in intracellular calcium in cultured rat cerebellar granule cells; format: cell-based
# T1 construct: L-type calcium channel: estimated IC50, KCl depolarization-induced increases in intracellular calcium; other: cultured
# Source text: as §1
# [24] = system: mouse cortical neurons; test: cells; conditions: Cortical neurone, read-out: IC50, prevention of NMDA-induced cell death
# Source text: The effective concentrations of NMDA receptor antagonists vary depending on the particular experimental conditions and the type of cell studied (cortical, hippocampal, striatal).
# [25] = system: audiogenic seizures; test: animal or person; format: in vivo, DBA/2 mice; conditions: Mus musculus, sc, read-out: ED50 for audiogenic stimulus
# Description: (§4) The first two models used DBA/2 mice which are prone to audiogenic seizures. […] The test substances were administered 15-30 min before the convulsant stimulus.
# [26] = system: L-type calcium channel; test: Inhibition of KCl depolarization-induced increases in intracellular calcium in cultured rat cerebellar granule cells; format: cell-based; conditions: cerebellar granule cells
# Source text: as §1
# [27] = system: NMDA-induced seizures; test: animal or person; conditions: Mus musculus, sc, read-out: ED50 for NMDA stimulus
# Description: as §4
# [28] = system: delayed rectifier potassium channel; test: Inhibition of delayed rectifier potassium channel in cultured N1E-115 neuroblastoma cells; format: cell-based; conditions: read-out: Delayed rectifier potassium channel: estimated IC50
# [29] = system: PBQ-elicited writhing; format: in vivo; conditions: 16 mg/kg i.p.
# Description: In the first series of experiments, the animals were administered an unpleasant stimulus (2-phenyl-1,4-benzoquinone, PBQ) which elicits a writhing response (abdominal stretching). Typically, the number of writhes occurring in a 5 min observation period is recorded. […] Nonsteroidal antiinflammatory agents are likewise effective in this model.
# [30] = system: central muscarinic cholinergic receptor; format: binding, rat
# [31] = system: PCP-like stereotypic behavior; test: PCP-like stereotypic behavior (hyperexcitability and head weaving) in rats; conditions: 30 mg/kg i.p.
# Source text: We investigated whether the arylalkylamines would elicit such behaviors.
# [32] = system: induction of LTP; set-up: species or system rat; conditions: at 100 μM
# [33] = read-out: IC50 against NMDA receptor-mediated increases in [Ca2+]i in cerebellar granule cells
# [34] = read-out: L-type calcium channel: estimated IC50, KCl depolarization-induced increases in intracellular calcium; cultured rat cerebellar granule cells
smiles,measurement,setting,value
N=C(N)NCCCC(N)C(=O)NCCCNCCCNCCCCCNC(=O)C(CC(N)=O)NC(=O)Cc1ccc(O)cc1O (stereo not drawn) [Compound 1],effect on locomotor activity,[1],did not elicit hyperactivity
same,dose without neuronal vacuolization,[2],100 mg/kg
same,"antinociceptive effect, hot plate",[3],dose- and time-dependent antinociceptive effects
same,pIC50,[4],3.09
same,TD50,[5]; Frings,16.8 mg/kg
same,motor impairment in CF1 mice,[6]; 4 μg i.c.v.,motor impairment
same,dose that had to be exceeded before motor toxicity was evident,"[6]; Frings mice, i.c.v.",exceeded 1.56 μg
same,pIC50,[7]; [33],6.99
same,"analgesic effect, tail flick (52° C. warm water)",[8],dose- and time-dependent analgesic effect
same,substitution for PCP,[9]; 1-30 mg/kg i.p.,did not substitute for PCP
same,"IC50, inhibition of acetic acid-induced writhing",[10],10 mg/kg
same,effect against seizures elicited by maximal electroshock,"[11]; CF1 mice, 4 μg i.c.v.",effective
same,Suppression of NMDA Receptor-Mediated Synaptic Transmission (concentration which suppresses),[12],10 to 30 µM
same,pIC50,[12]; read-out: IC50 for the NMDA receptor-mediated response,4.70
same,pIC50,[13],3.19
same,increase in latency to foot licking,[14]; 4 mg/kg s.c.,136%
same,increase in latency to jumping,[14]; 32 mg/kg s.c.,360%
same,protection against neuronal cell loss,[15],approximately 15%
same,IC50,[16],126 µM
same,motor performance in the inverted grid assay,[17]; 32 mg/kg s.c.,did not lessen the ability of DBA/2 mice to right themselves
same,effect on responses to NMDA and kainate,[18],blocked responses to NMDA at nanomolar concentrations without affecting the responses to kainate
same,reduction in neuronal death / protection in region CA1 of the hippocampus,"[19]; 10 mg/kg, 7 days post-ischemia",23%
same,"late-phase flinching, administered after the formalin",[20]; 10 min after formalin,significance was achieved only at the 10 nmol dose
same,"flinching behaviors, pretreatment to formalin",[20]; 10 min prior to formalin,effectively inhibited both early- and late-phase flinching behaviors
same,"IC50, prevention of sound-induced seizures",[21]; intracerebroventricular (i.c.v.) injection,0.63 µg
same,"IC50, prevention of sound-induced seizures",[21]; intraperitoneal injection,14.3 mg/kg
same,Drop in Mean Arterial Blood Pressure,[22],65 mm Hg at
same,Drop in Mean Arterial Blood Pressure: duration,[22],"i.v., 60 min"
same,pIC50,[23]; [34],3.59
same,pIC50,[24],4.15
NCCCNCCCCNCCCNCCCNCCCNC(=O)Cc1c[nH]c2ccccc12 [Compound 2],IC50,"[7]; read-out: IC50 (μM) vs. NMDA; NMDA/glycine-induced increases in intracellular calcium, cultured rat cerebellar granule cells",0.192 µM
same,pIC50,[7]; [33],6.79
same,Suppression of NMDA Receptor-Mediated Synaptic Transmission (concentration which suppresses),[12],10 to 30 µM
same,motor performance in the inverted grid assay,[17]; 20 mg/kg s.c.,without effect
same,ED50,[25],0.13 mg/kg
same,"protection against neuronal cell death (CA1 of hippocampus, striatum and neocortex)","[19]; 20 mg/kg i.p. 30 minutes after reinstating blood flow, 4 days",significantly (p<0.05) protected against neuronal cell death
same,protection of the striatum,[19]; doses as low as 1 mg/kg,> 98%
same,Drop in Mean Arterial Blood Pressure,[22],40 mm Hg at
same,Drop in Mean Arterial Blood Pressure: duration,[22],"i.v., 120 min"
same,pIC50,[23]; [34],4.62
same,concentrations inhibiting depolarization-induced increases in [Ca2+]i relative to those blocking responses to NMDA,[26],100 fold
same,ED50,[27],0.083 mg/kg
same,pIC50,[24],4.52
"NCCC(c1ccccc1)c1ccccc1 [Compound 19, 3,3-diphenylpropylamine]",pIC50,[28],5.00 to 6.00
same,TD50,[5],43.8 mg/kg
same,motor impairment,"[6]; mice, 30 mg/kg p.o.",motor impairment
same,IC50,"[7]; NMDA/glycine-induced increases in intracellular calcium, cultured rat cerebellar granule cells; read-out: IC50 (μM) vs. NMDA",0.435 µM
same,no generalization to PCP at doses up to the behaviorally active dose of,"[9]; i.p., rats",≤ 30 mg/kg
same,ED50,[11]; ip,26.4 mg/kg
same,ED50,[11]; oral (p.o.),35 mg/kg
same,Suppression of NMDA Receptor-Mediated Synaptic Transmission (concentration which suppresses),[12],100 to 300 µM
same,analgesic activity in the PBQ-induced writhing assay,[29],significant analgesic activity
same,Central muscarinic cholinergic receptor: percent block of [3H]QNB binding,[30]; at 0.1 μM,4% at
same,Central muscarinic cholinergic receptor: percent block of [3H]QNB binding,[30]; at 10 μM,0.174%
same,analgesic activity in the hot-plate assay,[14]; 16 mg/kg i.p.,significant analgesic activity
same,PCP-like stereotypic behavior (hyperexcitability and head weaving),[31],no PCP-like stereotypic behavior
same,IC50,[16],2.1 µM
same,LTP Assay (block of the induction of LTP),[32],did block; also recorded: block at 100
same,without effect on blood pressure at doses up to,[22]; s.c.,up to 100 mg/kg
same,pIC50,"[23]; cultured rat cerebellar granule cells; read-out: L-type calcium channel: estimated IC50, KCl depolarization-induced increases in intracellular calcium",4.99
